In PubChem BioAssay (NCI):
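These data come from cells grown in 96-well plates and exposed to compound for 48 hours at five concentrations. At the TGI there is no net growth.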

How the values were obtained:
Experiment in all cases: DTP human tumour cell line panel, 48 h
DU-145 prostate = tested on: DU-145 prostate
NCI-H23 lung = tested on: NCI-H23 lung
SF-295 CNS = tested on: SF-295 CNS
MDA-MB-231 breast = tested on: MDA-MB-231 breast
OVCAR-8 ovarian = tested on: OVCAR-8 ovarian
HCC-2998 colon = tested on: HCC-2998 colon
RXF 393 renal = tested on: RXF 393 renal
HL-60(TB) leukemia = tested on: HL-60(TB) leukemia
UO-31 renal = tested on: UO-31 renal
UACC-257 melanoma = tested on: UACC-257 melanoma
MCF7 breast = tested on: MCF7 breast
SF-539 CNS = tested on: SF-539 CNS
HT29 colon = tested on: HT29 colon
T-47D breast = tested on: T-47D breast
EKVX NSCLC = tested on: EKVX NSCLC
HCT-15 colon = tested on: HCT-15 colon
HCT-116 colon = tested on: HCT-116 colon

| Compound | TGI (DU-145 prostate) [µM] | TGI (NCI-H23 lung) [µM] | TGI (SF-295 CNS) [µM] | TGI (MDA-MB-231 breast) [µM] | TGI (OVCAR-8 ovarian) [µM] | TGI (HCC-2998 colon) [µM] | TGI (RXF 393 renal) [µM] | TGI (HL-60(TB) leukemia) [µM] | TGI (UO-31 renal) [µM] | TGI (UACC-257 melanoma) [µM] | TGI (MCF7 breast) [µM] | TGI (SF-539 CNS) [µM] | TGI (HT29 colon) [µM] | TGI (T-47D breast) [µM] | TGI (EKVX NSCLC) [µM] | TGI (HCT-15 colon) [µM] | TGI (HCT-116 colon) [µM] |
| --- | --- | --- | --- | --- | --- | --- | --- | --- | --- | --- | --- | --- | --- | --- | --- | --- | --- |
| COc1cc(C2c3cc4c(cc3OC(NC3CCCCC3)C2C)OCO4)cc(OC)c1OC (stereo not given) | > 100 | 11 | 0.577 | 2.26 | 15.6 | 4.22 | 0.82 | 0.675 | 32.2 | > 100 | > 100 | 1.4 | 25.6 | 66.7 | > 100 | > 45.4 | 15.5 |
| CCN(CC)CC(=O)Nc1c(C(N)=O)nnn1Cc1cc(Cl)c(C(=O)c2ccc(Cl)cc2)c(Cl)c1 | 90.2 | 37.4 | 32.9 | 34.8 | 34.7 | 32.1 | 23.8 | 39.5 | 31.2 | 32.6 | 32.4 | 31.4 | 38.6 | 61.9 | > 100 | 34.4 | 32.1 |
| COc1ccc(NC(=O)CC(=O)N2N=C(N3CCCCC3)CC2c2ccccc2)cc1 (stereo not given) | > 100 | > 100 | > 100 | > 100 | > 100 | > 100 | > 100 | > 100 | > 100 | > 100 | > 100 | > 100 | > 100 | > 100 | > 100 | > 100 | > 100 |
| Cc1nc(C)c(C(=O)NNC(=O)Cc2ccccc2)cc1C(=O)NNC(=O)Cc1ccccc1 | > 100 | > 100 | > 100 | > 100 | > 100 | > 100 | > 100 | > 100 | > 100 | > 100 | > 100 | > 100 | > 100 | > 100 | > 100 | > 100 | > 100 |
| Cc1ccccc1C1CC(=O)CC(c2ccccc2C)C12C(=O)NC(=O)NC2=O (stereo not given) | > 100 | > 100 | > 100 | > 100 | > 100 | > 100 | > 100 | > 100 | > 100 | > 100 | > 100 | > 100 | > 100 | > 100 | > 100 | > 100 | > 100 |
| CN(NC(=O)c1ccco1)C1=NCCN1 | > 100 | > 100 | > 100 | > 100 | > 100 | > 100 | > 100 | > 100 | > 100 | > 100 | > 100 | > 100 | > 100 | > 100 | > 100 | > 100 | > 100 |
| COc1ccc(N(C)S(=O)(=O)c2ccccc2)cc1 | > 100 | > 100 | > 100 | > 100 | > 100 | > 100 | > 100 | > 100 | > 100 | > 100 | > 100 | > 100 | > 100 | > 100 | > 100 | > 100 | > 100 |
| O=C1/C(=C/c2cccnc2)C(n2cccc2)c2c(Br)sc(Br)c21 (stereo not given) | 3.53 | 9.18 | 32 | 3.3 | 4.81 | 2.41 | 4.45 | 5.57 | 3.43 | 3.36 | 4.02 | 9.5 | 11.1 | 6.25 | 4.1 | 4.96 | 4.97 |
| CC1=NN(C(=O)CC(=O)Nc2ccccc2C)C(=O)C1N=Nc1ccc(C(=O)O)cc1 (stereo not given) | > 100 | > 100 | > 100 | > 100 | > 100 | > 100 | > 100 | > 100 | > 100 | > 100 | > 100 | > 100 | > 100 | > 100 | > 100 | > 100 | > 100 |
| CSc1c(C(=O)Nc2ccc(Cl)cc2)c(N)nn1-c1ccccc1 | > 100 | > 100 | > 100 | > 100 | > 100 | > 100 | > 87.4 | > 100 | > 100 | > 100 | > 100 | > 100 | > 100 | > 100 | > 100 | > 100 | > 100 |
| CCCCON1C[C@@H](O)C(O)[C@@H](O)C1 (stereo not given in full) | > 100 | > 100 | > 100 | > 100 | > 100 | > 100 | > 100 | > 100 | > 100 | > 100 | > 100 | > 100 | > 100 | > 100 | > 100 | > 100 | > 100 |
| CC1=NN(c2cccc(Cl)c2)C2(SCC(=O)N2c2nc3ccccc3s2)/C1=C\c1ccc(Cl)cc1 (stereo not given) | 39.2 | 41.5 | 42.7 | 72 | 40.7 | 27.5 | 38.4 | 24.3 | 29.5 | 63.9 | 87 | 89.6 | 42.7 | > 100 | > 100 | 38.1 | 31.3 |
| COc1cc(/C=C2\C[C@H]3[C@@H]4CC=C5C[C@@H](O)CC[C@]5(C)[C@H]4CC[C@]3(C)[C@H]2O)cc(OC)c1OC | > 100 | 58.2 | 22.4 | 41.7 | > 100 | > 100 | 18.3 | 23 | 36.8 | 83.1 | > 100 | > 100 | 27.6 | 72.6 | > 100 | > 100 | 24.4 |
| O=C(Nc1cc(C(=O)Nc2cccc(S(=O)(=O)O)c2)cc(C(=O)Nc2cccc(S(=O)(=O)O)c2)c1)c1cccc(C(=O)Nc2cc(C(=O)Nc3cccc(S(=O)(=O)O)c3)cc(C(=O)Nc3cccc(S(=O)(=O)O)c3)c2)c1 | > 100 | > 100 | > 100 | > 100 | > 100 | > 100 | > 100 | 65.5 | > 100 | > 100 | > 100 | > 100 | > 100 | > 100 | > 100 | > 100 | > 100 |
| CCOC(=O)c1ccc(Nc2nc3cc(C(F)(F)F)ccc3nc2-c2ccccc2)cc1 | > 100 | > 100 | 60.6 | > 100 | > 100 | 89.5 | 98 | > 100 | > 100 | > 100 | > 100 | > 100 | > 10 | 91.6 | > 100 | > 100 | > 100 |
| O=C(O)CNC(=O)CO/N=C1/C(c2c(O)[nH]c3ccccc23)=Nc2ccccc21 | > 100 | > 100 | > 100 | > 100 | > 100 | > 100 | > 100 | > 100 | > 100 | > 100 | > 100 | > 100 | > 100 | > 100 | > 100 | > 100 | > 100 |
| CC1=NN(c2nc(N)nc(CCl)n2)CC1 | > 100 | 41.2 | > 100 | > 100 | 48.6 | > 100 | > 100 | 40 | 20.5 | > 100 | > 100 | 57.9 | > 100 | > 100 | 35.8 | 43.6 | 87.4 |
| OC(c1nc2ccccc2s1)(C(F)(F)F)C(F)(F)F | > 100 | > 100 | > 100 | > 100 | > 100 | > 100 | > 100 | > 100 | > 100 | > 100 | > 100 | > 100 | > 100 | > 100 | > 100 | > 100 | > 100 |
| COC1=C2CC(C)CC(OC)[C@@H](OC(=O)CCN)[C@H](C)/C=C(\C)C(OC(N)=O)C(OC)/C=C\C=C(/C)C(=O)NC(=CC1=O)C2=O (stereo not given in full) | 20.8 | 6.22 | 30.1 | 7.47 | 15.5 | 5.69 | 17.5 | 0.757 | 16.3 | 2.82 | 2.03 | 14.9 | 13.1 | 1.68 | 25 | 13.8 | 12.3 |
| Cc1ccc(CC(=O)Nc2ccc(NC(=O)/C=C/NC(=O)/C=C/c3ccc(-c4ccccc4)cc3)cc2C(=O)c2ccccc2)cc1 | > 100 | 4.2 | 3.05 | 5.65 | 2.21 | 1.61 | 3.52 | 54.4 | 13.7 | 4.71 | 4.92 | 3.67 | 20.3 | 18 | 3.58 | 9.53 | 2.96 |
